Measured values published in paper PMC12289626, “Aloin protects against UVB-induced apoptosis by modulating integrated signaling pathways” (Frontiers in Pharmacology, 2025).

Columns and labels:
[1] = biological target: T1, p38α (Homo sapiens, UniProt Q16539); assay: ADP-Glo kinase assay with Promega p38α Kinase Enzyme System; format: biochemical
T1 construct: gene MAPK14

[2] = biological target: T2, JNK1 (Homo sapiens, UniProt P45983); assay: ADP-Glo kinase assay with Promega JNK1 Kinase Enzyme System; format: biochemical
T2 construct: gene MAPK8
T2 sequence (P45983 whole entry): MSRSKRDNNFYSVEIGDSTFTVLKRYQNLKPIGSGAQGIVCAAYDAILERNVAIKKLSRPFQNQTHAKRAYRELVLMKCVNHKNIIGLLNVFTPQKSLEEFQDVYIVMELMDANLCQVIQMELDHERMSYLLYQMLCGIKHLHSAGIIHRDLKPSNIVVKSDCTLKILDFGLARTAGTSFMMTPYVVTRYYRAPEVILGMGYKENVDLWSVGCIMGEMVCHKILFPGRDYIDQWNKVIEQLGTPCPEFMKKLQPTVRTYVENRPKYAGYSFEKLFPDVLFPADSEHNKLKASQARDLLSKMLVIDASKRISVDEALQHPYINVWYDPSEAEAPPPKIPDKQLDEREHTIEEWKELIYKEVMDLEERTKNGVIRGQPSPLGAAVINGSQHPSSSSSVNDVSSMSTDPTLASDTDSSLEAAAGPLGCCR

T1 sequence (Q16539 2-360): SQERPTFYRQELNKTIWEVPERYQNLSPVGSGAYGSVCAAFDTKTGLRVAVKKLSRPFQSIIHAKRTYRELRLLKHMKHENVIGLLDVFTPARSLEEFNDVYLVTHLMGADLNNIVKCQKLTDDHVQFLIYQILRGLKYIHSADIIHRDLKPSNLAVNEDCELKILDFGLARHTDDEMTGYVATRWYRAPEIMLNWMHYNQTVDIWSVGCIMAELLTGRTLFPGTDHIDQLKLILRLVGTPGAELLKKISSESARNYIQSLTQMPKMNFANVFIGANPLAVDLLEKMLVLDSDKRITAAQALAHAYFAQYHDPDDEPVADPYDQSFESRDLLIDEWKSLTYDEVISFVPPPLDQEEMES

IC50 [1]: 0.223 mM | IC50 [2]: 3.92 mM
Structure (SMILES): O=C1c2c(O)cccc2C([C@@H]2O[C@H](CO)[C@@H](O)[C@H](O)[C@H]2O)c2cc(CO)cc(O)c21 (some centres unmarked) [aloin]
